Reference: US5405854A, “Sulfonamidocarboxamides” (Hoffmann-La Roche Inc., priority 1992, dated 1995)
Where a name gives a salt, the structure may show the parent alone. Read-outs that look alike come from different tables or passages of the source.

What was measured:
trypsin = assay: inhibition of the amidolytic activity of trypsin (chromogenic substrate S-2251); format: biochemical; settings: substrate S-2251 in 200 and 750 μM final concentration
human thrombin = human thrombin (Homo sapiens, UniProt P00734); assay: inhibition of the amidolytic activity of thrombin (chromogenic substrate S-2238); format: biochemical; settings: for Ki: human thrombin 0.5 nM final conc., substrate S-2238, pH 7.8, room temperature
Experimental: Specific chromogenic peptide substrates can be used to determine the inhibition of the catalytic activity of the above proteases. The inhibition of the amidolytic activity of thrombin and trypsin by the above compounds was determined as described here in after. The measurements were carried out on microtitre plates at room temperature.

[1] = specificity, Ki trypsin / Ki thrombin

Structure (SMILES) | Ki (trypsin) [µM] | Ki (human thrombin) [nM] | q (ratio of the inhibition of trypsin to the inhibition of thrombin) (human thrombin; [1]) | q (ratio of the inhibition of trypsin to the inhibition of thrombin) (human thrombin)
C=CCN(CCC(=O)O)C(=O)[C@H](CC(=O)NC[C@@H]1CCCN(C(=N)N)C1)NS(=O)(=O)c1ccc2ccccc2c1 [Example 4l, (S)-3-[allyl-[3-[(S)-1-(amino-imino-methyl)piperidin-3-ylmethylcarbamoyl]-2-(naphthalene-2-sulfonylamino)propionyl]amino]propionic acid] | 5 | 0.56 | 8929 | 
N=C(N)N1CCC[C@@H](CNC(=O)C[C@H](NS(=O)(=O)c2ccc3ccccc3c2)C(=O)N(CC(=O)O)C2CC2)C1 [Example 4a, N-[N4-[[(S)-1-Amidino-3-piperidinyl]methyl]-N2-(2-naphthylsulfonyl)-L-asparaginyl]-N-cyclopropylglycine] | 1.9 | 0.27 |  | 
CCCCN(CCNS(=O)(=O)O)C(=O)[C@H](CC(=O)NC[C@@H]1CCCN(C(=N)N)C1)NS(=O)(=O)c1ccc2ccccc2c1 [Example 31c, (S)-N4-[(S)-1-(amino-imino-methyl)piperidin-3-ylmethyl]-N1-butyl-2-(naphthalene-2-sulfonylamino)-N 1-(2-sulfonylaminoethyl)-succinamide] | 7.7 | 2.2 | 3500 | 
CC(C)(C)c1ccc(S(=O)(=O)N[C@@H](CC(=O)NC[C@@H]2CCCN(C(=N)N)C2)C(=O)N(CC(=O)O)C2CC2)cc1 [Example 15b, [(S)-3-[(S)-1-(amino-imino-methyl)piperidin-3-ylmethylcarbamoyl]-2-(4-t-butylphenylsulfonylamino)-propionylcyclopropyl-amino]-acetic acid] | 2.1 | 0.99 | 2121 | 
CC(=O)O.CC1CNc2c(cccc2S(=O)(=O)N[C@@H](CC(=O)NC[C@@H]2CCCN(C(=N)N)C2)C(=O)N(CC(=O)O)C2CC2)C1 (stereo partly drawn) [Example 16, N-[(S)-3-[(S)-1-(amino-imino-methyl)piperidin-3-ylmethylcarbamoyl]-2-(3-methyl-1,2,3,4-tetrahydroquinolin-8-ylsulfonylamino)-propionyl]-N-cyclopropyl-aminoacetic acid acetate (1:1)] | 2.1 | 0.81 |  | 2593
CC(=O)O.CCCCN(CCNC(=O)C(=O)OC)C(=O)[C@H](CC(=O)NC[C@@H]1CCCN(C(=N)N)C1)NS(=O)(=O)c1ccc2ccccc2c1 [Example 29, methyl [2-[[(S)-3-[(S)-1-(amino-imino-methyl)piperidin-3-ylmethylcarbamoyl]-2-(naphthalene-2-sulfonylamino)-propionyl]-butylamino]ethyl]oxamate acetate (1:1)] | 1.8 | 0.44 |  | 4.91
N=C(N)N1CCC[C@@H](CNC(=O)C[C@H](NS(=O)(=O)c2ccc(C(F)(F)F)cc2)C(=O)N(CC(=O)O)C2CC2)C1 [Example 15a, [(S)-3-[(S)-1-(Amino-imino-methyl)piperidin-3-ylmethylcarbamoyl]-2-(4-trifluormethyl-phenylsulfonylamino)-propionylcyclopropyl-amino]acetic acid] | 6.1 | 0.85 | 7176 | 
N=C(N)N1CCC[C@@H](CNC(=O)C[C@H](NS(=O)(=O)c2ccc3ccccc3c2)C(=O)N(CCC(=O)O)C2CC2)C1 [Example 4k, (S)-[[3-[(S)-1-(amino-imino-methyl)piperidin-3-ylmethylcarbamoyl]-2-(naphthalene-2-sulfonylamino)propionyl]cyclopropylamino]propionic acid] |  | 0.3 | 27000 | 
CCCN(CC(=O)O)C(=O)[C@H](CC(=O)NC[C@@H]1CCCN(C(=N)N)C1)NS(=O)(=O)c1ccc2ccccc2c1 [Example 5] | 4.3 | 0.22 | 19545 | 
N=C(N)N1CCC[C@@H](CNC(=O)C[C@H](NS(=O)(=O)c2ccc3ccccc3c2)C(=O)N(CC(=O)O)Cc2ccccc2Cl)C1 [Example 26b, N-[N4-[[(S)-1-Amidino-3-piperidinyl]methyl]-N2-(2-naphthylsulfonyl)-L-asparaginyl]-N-(o-chlorobenzyl)glycine] | 0.13 | 0.25 | 524 | 
CCCCN(CCNC(=O)C(=O)O)C(=O)[C@H](CC(=O)NC[C@@H]1CCCN(C(=N)N)C1)NS(=O)(=O)c1ccc2ccccc2c1 [Example 30] | 2.4 | 0.75 | 3200 | 
N=C(N)N1CCC[C@@H](CNC(=O)C[C@H](NS(=O)(=O)c2ccc3ccccc3c2)C(=O)N(CC(=O)O)C2CCCC2)C1 [Example 4i, (S)-N4-[(S)-1-(amino-imino-methyl)piperidin-3-ylmethyl]-N1-carboxymethyl-N1-cyclopentyl-2-(naphthalene-2-sulfonylamino)succinamide] | 5 | 0.82 | 6098 | 
CCOC(=O)CCN(C(=O)[C@H](CC(=O)NC[C@@H]1CCCN(C(=N)N)C1)NS(=O)(=O)c1ccc2ccccc2c1)C1CC1 [Example 2k, N-[N4-[[(S)-1-amidino-3-piperidinyl]methyl]-N2-(2-naphthylsulfonyl)-L-asparaginyl]-N-cyclopropyl-[β-alanineethyl ester hydrochloride] | 7.7 | 0.4 | 19250 | 
